According to patent US20070110751A1, “Compositions and methods for reducing infarct size” (priority 2005, published 2007):
Read-outs that look alike come from different tables or passages of the source.

Columns and labels:
[1] = system: C57/BL6 mice; type: in vivo, mouse
Procedure: Complexes were immunoprecipitated from 300 μg of total protein lysates from each of the indicated treatment groups. ^32P-labeling of histones H1 was measured using a standard Cdk2 kinase assay. […] IFS in DETA/NO-treated mice compared to control Vehicle-treated mice are shown (*P<0.05; n=4 per group).
IFS in Roscovitine-treated mice compared to control vehicle-treated mice are shown (*P<0.001; n=6 per group). […] Ventricular lysates were probed for the indicated proteins. Mean IFS sizes after 24 hours of reperfusion are shown. (*P<0.05 for Cdk2^+/+ versus Cdk2^−/− IFS; n=5 per group).
Male mice were subjected to myocardial ischemia/reperfusion as previously described (Wang, G., et al. 2005. Am. J. Physiol. Heart Circ. Physiol 288:H1290-H1295). Pentobarbital-anesthetized (50 mg/kg body wt i.p.) mice were intubated for positive pressure ventilation with oxygen-enriched room air during the surgical procedure. After left thoracotomy between ribs three and four, the pericardium was opened and a silk 8-0 suture was looped under the left anterior descending coronary artery 1-3 mm from the tip of the normally positioned left atrium. Ischemia was induced by ligation of the suture (a 1 to 2 mm section of PE-10 tubing was placed between the suture and the artery to prevent damage to the vessel). Rectal temperature was continuously measured and maintained at 36.5-37.5° C. Following a 30-min coronary artery occlusion, the suture was removed to allow coronary reperfusion followed by closure of the chest wall. After 24 hours of coronary artery reperfusion the heart was excised and postmortem perfused as previously described (Wang, G., et al. 2005. Am. J. Physiol. Heart Circ. Physiol 288:H1290-H1295). The infarct region was determined by perfusion with a 1% solution of 2,3,5-triphenyltetrazolium chloride (TTC) in phosphate buffer (pH 7.4, 37° C.). To delineate the risk region, the coronary artery was tied at the site of the previous occlusion and the aortic root perfused with a 1% solution of Evans blue dye. Infarct size was measured by planimetry with NIH Image and expressed as a percentage of the area at risk.
Limitation of IFS by pharmacological delayed preconditioning of the heart was induced with the nitric oxide donor diethylenetriamine/nitric oxide (DETA/NO) as previously reported (Wang, G., et al. 2005. Am. J. Physiol. Heart Circ. Physiol 288:H1290-H1295). After dissecting free the left jugular vein in pentobarbital-anesthetized WT mice, DETA/NO was given in 4 boluses 24-hours prior to 30-min coronary artery occlusion (0.1 mg/kg×4, i.v.).

[2] = molecular target: T1, Cdk2 (Mus musculus, UniProt P97377); assay: Cdk2 immune complex kinase assay on ventricular lysates of treated mice (histones H1 as substrate); type: in vivo; conditions: DETA/NO 0.1 mg/kg x 4 i.v. 24 hours before I/R, compared to vehicle-treated hearts
T1 construct: Cdk2 complexes were immunoprecipitated from ventricular lysates from each of the indicated treatment groups; from tissue; host or cells: mouse heart ventricle (C57/BL6 mice, treated in vivo)
Procedure: Complexes were immunoprecipitated from 300 μg of total protein lysates from each of the indicated treatment groups. ^32P-labeling of histones H1 was measured using a standard Cdk2 kinase assay.
Ventricular lysates were probed for the indicated proteins.
Western blotting was performed using the identical protein lysates. Antibodies were purchased from Santa Cruz Biotechnology (Santa Cruz). Protein expression was visualized using horseradish peroxidase-conjugated second antibodies and enhanced chemiluminescence reagents (Amersham Biosciences). Nonsaturated autoradiographs were quantitated with SigmaScan.
Cdk2 complexes were immunoprecipitated from ventricular lysates from each of the indicated treatment groups.

Compound: NCCN(CCN)/[N+]([O-])=N/O [DETA/NO, diethylenetriamine/nitric oxide]
- infarct size (IF % of the A@R) ([1]; DETA/NO 0.1 mg/kg x 4 i.v. 24 hours before 30-min coronary occlusion, wildtype mice, mean ± SEM, P<0.05 vs vehicle, n=4 per group): 35.0±3.7 IF % of the A@R
- reduction in infarct size compared to vehicle treated mice ([1]; DETA/NO 0.1 mg/kg x 4 i.v. 24 hours before I/R injury, vs vehicle): 32%
- Cdk2 activity in hearts after 30 minutes of ischemia [2]: decreased Cdk2 activity
- Cdk2 activity in hearts after 30 minutes of ischemia ([2]; listed as NO donor): blocked the upregulation of Cdk2

Compound: CC[C@H](CO)Nc1nc(NCc2ccccc2)c2ncn(C(C)C)c2n1 [Roscovitine, 6-Benzylamino-2-(R)-[(1-ethyl)-2-hydroxyethylamino]-9-isopropyl-purine]
- reduction in infarct size compared to vehicle treated mice ([1]; Roscovitine 2.8 mg/gm i.p. two hours prior to ischemia, 30 min occlusion, 24 h reperfusion, vs DMSO vehicle): 36.7%
- infarct size (IFS % of A@R) ([1]; Roscovitine 2.8 mg/gm intraperitoneally two hours prior to ischemia, 30 min LAD occlusion, 24 h reperfusion, mean ± SEM, P<0.001 vs vehicle (DMSO), n=6 per group): 34.2±2.6 IFS % of A@R
